What was measured:
Type in all cases: cell-based
IL-2 = IL-2 fold-change assay, anti-CD3 stimulated PBMCs, Mesoscale; conditions: PBMC, PBMCs on anti-human CD3 (OKT3) coated plates, 24 h, fold difference from the DMSO control
Procedure: For the IL-2 analysis, 96 well plates were precoated with 1 μg/mL anti-human CD3 antibody (OKT3, eBioscience Inc., San Diego, Calif.). After washing with PBS, the indicated compound was added (50 μL/well) followed by PBMCs diluted at 3-4 million cells/mL (150 μL/well). Plates were incubated for 24 h and the supernatants collected for Mesoscale IL-2 analysis. IL-2 activity is measured as fold difference from the DMSO control.
(§1) In each of Tables 5-7, the % inhibition values are reported as “A”, “B”, “C”, or “D”. “A” represents a % inhibition value of less than 50% (value <50%). “B” represents a % inhibition value of equal to or more than 50% and less than 70% (50%≤value<70%). “C” represents a % inhibition value of equal to or more than 70% and less than 90% (70%≤value<90%). “D” represents a % inhibition value of equal or more than 90% (value≥90%). In Table 8, the fold-change values are reported as “A”, “B”, “C”, or “D”. “A” represents a fold-change value of equal to or less than 1 (value≤1). “B” represents a fold-change value of more than 1 and equal to or less than 2 (1<value≤2). “C” represents a fold-change value of more than 2 and equal to or less than 3 (2<value≤3). “D” represents a fold-change value of more than 3 (value>3).

IL-1β = IL-1β inhibition assay, LPS-induced PBMCs or CD14+ monocytes, Meso Scale; conditions: 1 h pretreatment, 100 ng/mL LPS 18-24 h, supernatant, read-out: I1-1β % Inhibition at 10 μM
Procedure: (§2) Either frozen primary blood mononuclear cells (PBMCs) or frozen CD14+ mobilized peripheral blood monocytes were purchased from AllCells (PB003F, Normal Peripheral Blood MNC (Alameda, Calif.)). Cells were quick thawed, washed 1-time with RPMI-1640 (10% FBS/1% Pen-Strep) and plated in 96 well plates at 200,000 cells per well. Cells were pretreated with DMSO only or with the indicated compound for 1 h and then induced with 100 ng/mL lipopolysaccharide (LPS) for 18-24 h. The supernatant was analyzed for IL-1β, IL-6, and TNFα, using Meso Scale assay according to manufacturer's protocol. The negative control wells were treated with DMSO.
as §1

GSPT1 = target: T1, GSPT1 (Homo sapiens, UniProt P15170+Q96SW2); assay: GSPT1 degradation assay (Western blot, MV-4-11 cells); conditions: 6-8 hours
T1 construct: Whole cell extracts were prepared using RIPA buffer; endogenous in cells; host or cells: MV-4-11
T1 sequence (P15170 whole entry): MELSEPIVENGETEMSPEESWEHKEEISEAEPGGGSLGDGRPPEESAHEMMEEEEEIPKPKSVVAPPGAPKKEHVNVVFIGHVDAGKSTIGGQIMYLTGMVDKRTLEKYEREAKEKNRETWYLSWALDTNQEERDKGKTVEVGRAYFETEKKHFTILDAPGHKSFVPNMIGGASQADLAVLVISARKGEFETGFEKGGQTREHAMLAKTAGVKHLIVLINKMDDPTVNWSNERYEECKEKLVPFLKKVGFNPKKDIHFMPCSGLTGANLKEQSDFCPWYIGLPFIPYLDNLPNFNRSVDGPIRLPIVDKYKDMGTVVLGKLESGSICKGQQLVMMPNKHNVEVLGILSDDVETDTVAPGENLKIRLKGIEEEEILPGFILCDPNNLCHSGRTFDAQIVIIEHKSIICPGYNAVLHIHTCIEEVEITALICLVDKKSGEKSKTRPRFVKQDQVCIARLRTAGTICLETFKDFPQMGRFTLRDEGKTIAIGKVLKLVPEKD
T1 sequence (Q96SW2 whole entry): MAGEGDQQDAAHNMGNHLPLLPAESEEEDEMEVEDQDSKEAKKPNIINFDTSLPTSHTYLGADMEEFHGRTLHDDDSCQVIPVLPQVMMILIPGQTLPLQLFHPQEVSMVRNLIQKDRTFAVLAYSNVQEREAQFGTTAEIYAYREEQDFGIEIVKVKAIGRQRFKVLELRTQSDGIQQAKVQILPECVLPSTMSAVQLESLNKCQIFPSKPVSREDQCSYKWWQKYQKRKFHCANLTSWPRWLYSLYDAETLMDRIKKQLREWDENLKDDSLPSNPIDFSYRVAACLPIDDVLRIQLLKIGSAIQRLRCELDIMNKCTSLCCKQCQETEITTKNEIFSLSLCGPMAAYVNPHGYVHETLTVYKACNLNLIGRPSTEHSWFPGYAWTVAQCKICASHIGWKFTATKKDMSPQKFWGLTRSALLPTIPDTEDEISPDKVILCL
T1 sequence (Q16531 whole entry partner): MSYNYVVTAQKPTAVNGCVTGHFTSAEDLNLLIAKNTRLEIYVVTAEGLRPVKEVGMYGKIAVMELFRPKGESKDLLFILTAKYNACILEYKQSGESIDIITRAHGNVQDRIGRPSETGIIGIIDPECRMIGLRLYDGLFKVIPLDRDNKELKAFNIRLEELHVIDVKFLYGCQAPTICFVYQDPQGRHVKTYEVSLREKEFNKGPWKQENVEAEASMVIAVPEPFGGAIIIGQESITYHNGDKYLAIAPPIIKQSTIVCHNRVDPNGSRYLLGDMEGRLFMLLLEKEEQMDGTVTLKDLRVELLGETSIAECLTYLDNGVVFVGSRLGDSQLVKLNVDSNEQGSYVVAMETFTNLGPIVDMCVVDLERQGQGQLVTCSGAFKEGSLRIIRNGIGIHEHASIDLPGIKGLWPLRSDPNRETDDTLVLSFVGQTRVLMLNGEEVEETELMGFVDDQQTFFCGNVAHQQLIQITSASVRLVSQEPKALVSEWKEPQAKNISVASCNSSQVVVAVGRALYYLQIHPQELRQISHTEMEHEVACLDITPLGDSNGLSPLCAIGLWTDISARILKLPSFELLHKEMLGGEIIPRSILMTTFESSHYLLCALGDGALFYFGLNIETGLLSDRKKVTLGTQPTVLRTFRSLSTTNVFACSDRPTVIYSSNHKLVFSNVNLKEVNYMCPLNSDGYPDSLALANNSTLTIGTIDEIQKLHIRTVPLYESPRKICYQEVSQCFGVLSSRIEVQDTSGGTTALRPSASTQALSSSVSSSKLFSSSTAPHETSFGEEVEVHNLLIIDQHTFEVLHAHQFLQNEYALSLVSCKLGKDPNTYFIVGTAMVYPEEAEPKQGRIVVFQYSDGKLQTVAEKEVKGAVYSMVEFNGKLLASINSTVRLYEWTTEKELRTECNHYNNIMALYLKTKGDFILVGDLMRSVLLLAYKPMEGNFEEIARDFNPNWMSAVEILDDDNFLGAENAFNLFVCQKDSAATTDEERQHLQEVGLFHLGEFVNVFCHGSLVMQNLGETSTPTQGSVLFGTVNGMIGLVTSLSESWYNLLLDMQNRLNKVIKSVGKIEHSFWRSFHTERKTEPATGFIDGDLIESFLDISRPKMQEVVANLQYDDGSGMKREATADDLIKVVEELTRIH
Procedure: (§3) MV-4-11 cells were grown in RPMI 1640 media supplemented with 10% fetal bovine serum, streptomycin and penicillin.
(§4) Cells were cultured at approximately 10^6 cells per mL and incubated in DMSO or the indicated compound for 6-8 hours. Whole cell extracts were prepared using RIPA buffer according to manufacturer's protocol (Pierce). Briefly, 3×10^6 cells were washed once in PBS, the cell pellets were resuspended in RIPA buffer and allowed to incubate for 15 minutes on ice. Cells debris was removed by centrifugation and the cleared whole cell lysates were transferred to new tubes for further analysis.
(§5) For Western blot analysis, whole cell protein extracts were separated on 4-12% SDS-polyacrylamide gels, transferred to nitrocellulose and probed with the indicated primary antibodies. Membranes were subsequently washed and probed with the appropriate IRDye secondary antibodies (LI-COR). The signal was detected using the Odyssey Imaging System (LI-COR).
(§6) The following antibodies were used in these studies: Anti-eRF3/GSPT1: Abcam, ab126090 (Cambridge, Mass.); Anti-Ikaros: Abcam, ab191394 (Cambridge, Mass.); Anti-CK1α: Abcam, ab108296 (Cambridge, Mass.); β-actin (8H10D10) mouse monoclonal antibody: Cell Signaling Technology, #3700 (Danvers, Mass.); IRDye 680RD Goat anti-rabbit antibody: LI-COR, 926-68071 (Lincoln, Nebr.); IRDye 800CW Goat anti-mouse antibody: LI-COR, 926-32210 (Lincoln, Nebr.).
(§7) In each of Tables 1-4, the % degradation values are reported as “A”, “B”, “C”, or “D”. “A” represents a % degradation value of less than 25% (value<25%). “B” represents a % degradation value of equal to or more than 25% and less than 50% (25%≤value<50%). “C” represents a % degradation value of equal to or more than 50% and less than 75% (50%≤value <75%). “D” represents a % degradation value of equal to or more than 75% (value≥75%).

TNFα = assay: TNF-α inhibition assay, LPS-induced PBMCs or CD14+ monocytes, Meso Scale; conditions: 1 h pretreatment, 100 ng/mL LPS 18-24 h, supernatant
Procedure: as §2, §1

CK1α = target: T2, CK1α (Homo sapiens, UniProt P48729+Q96SW2); assay: CK1α degradation assay (Western blot, MV-4-11 cells); conditions: MV4-11, 6-8 hours
T2 construct: Whole cell extracts were prepared using RIPA buffer; endogenous in cells; host or cells: MV-4-11
T2 sequence (P48729 whole entry): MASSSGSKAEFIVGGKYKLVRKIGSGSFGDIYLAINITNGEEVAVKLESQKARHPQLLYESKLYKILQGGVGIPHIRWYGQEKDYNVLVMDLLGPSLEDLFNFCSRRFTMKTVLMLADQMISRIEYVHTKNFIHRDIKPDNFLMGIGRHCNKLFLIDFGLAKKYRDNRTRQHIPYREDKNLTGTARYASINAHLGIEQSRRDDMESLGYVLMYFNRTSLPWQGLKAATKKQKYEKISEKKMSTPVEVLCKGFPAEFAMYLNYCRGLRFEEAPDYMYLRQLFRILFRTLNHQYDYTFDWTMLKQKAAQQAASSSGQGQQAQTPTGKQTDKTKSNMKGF
T2 sequence (Q96SW2 whole entry): as the sequence (Q96SW2 whole entry) above
T2 sequence (Q16531 whole entry partner): as the sequence (Q16531 whole entry partner) above
Procedure: as §3, §4, §5, §6, §7

IKAROS = target: T3, IKAROS (Homo sapiens, UniProt Q13422+Q96SW2); assay: IKAROS degradation assay (Western blot, MV-4-11 cells); conditions: 6-8 hours; for IKAROS % degradation at 1 µM: MV4-11, 1 μM
T3 construct: endogenous in cells; host or cells: MV-4-11
T3 sequence (Q13422 whole entry): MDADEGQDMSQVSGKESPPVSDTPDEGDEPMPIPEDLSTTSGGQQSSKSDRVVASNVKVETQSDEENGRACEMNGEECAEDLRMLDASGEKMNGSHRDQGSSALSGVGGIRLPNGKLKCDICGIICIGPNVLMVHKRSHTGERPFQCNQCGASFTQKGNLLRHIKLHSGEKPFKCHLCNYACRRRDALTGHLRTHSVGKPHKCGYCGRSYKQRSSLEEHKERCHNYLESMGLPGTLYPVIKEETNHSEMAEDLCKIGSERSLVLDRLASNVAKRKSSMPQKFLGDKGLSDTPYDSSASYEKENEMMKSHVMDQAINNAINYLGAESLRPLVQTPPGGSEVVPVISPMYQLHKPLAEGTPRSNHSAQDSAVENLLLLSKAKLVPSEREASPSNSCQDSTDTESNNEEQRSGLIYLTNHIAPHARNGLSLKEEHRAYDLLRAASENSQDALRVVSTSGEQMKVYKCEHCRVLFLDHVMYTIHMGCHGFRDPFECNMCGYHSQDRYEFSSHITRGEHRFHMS
T3 sequence (Q96SW2 whole entry): as the sequence (Q96SW2 whole entry) above
T3 sequence (Q16531 whole entry partner): as the sequence (Q16531 whole entry partner) above
Procedure: as §3, §4, §5, §6, §7

MOLM-13 cells = assay: MOLM-13 cell viability assay (CellTiter-Glo); conditions: Homo sapiens, MOLM-13, 72 h, 3 days, % of DMSO control
Procedure: MOLM-13 cells were cultured in RPMI 1640 media supplemented with 10% fetal bovine serum, streptomycin and penicillin, and were plated in white walled 96-well plates at 2500 cells/well. Cells were incubated in DMSO (control) or the indicated compound for 3 days at 37° C. and 5% CO2. Following the incubation period, 100 μL of CellTiterGlow (CTG) reagent (CellTiter-Glo® Luminescent Cell Viability Assay, Promega (Madison, Wis.)) was added to each well. Following a 10 minutes incubation with shaking, luminescence was measured using the EnVision Multimode plate reader.
The MOLM-13 cell viability values as % DMSO are reported as “A”, “B”, “C”, or “D”. “A” represents a % viability value of less than 25% (value<25%). “B” represents a % viability value of equal to or more than 25% and less than 50% (25%≤value<50%). “C” represents a % viability value of equal to or more than 50% and less than 75% (50%≤value<75%). “D” represents a % viability value of equal or more than 75% (value≥75%).

IL-6 = IL-6 inhibition assay, LPS-induced PBMCs or CD14+ monocytes, Meso Scale; conditions: 1 h pretreatment, 100 ng/mL LPS 18-24 h, supernatant
Procedure: as §2, §1

Row | percent degradation at 1 µM (CK1α) | IKAROS % degradation at 1 µM (IKAROS) | SMILES | fold induction at 10 µM (IL-2) | inhibition at 10 µM (IL-1β) | GSPT1 % Degradation at 1 μM (GSPT1) | inhibition at 10 µM (TNFα) | viability at 10 µM (MOLM-13 cells) | IKAROS % Degradation at 10 μM (IKAROS; 10 μM) | inhibition at 10 µM (IL-6)
1 | – | – | O=C1CC[C@H](N2Cc3c(OCc4ccc(CN5CCOCC5)cc4)csc3C2=O)C(=O)N1 [Compound 2, (S)-3-(3-((4-(morpholinomethyl)benzyl)oxy)-6-oxo-4H-thieno[2,3-c]pyrrol-5(6H)-yl)piperidine-2,6-dione] | 1 to 2 | < 50% | B (“B” represents a % degradation value of equal to or more than 25% and less than 50% (25%≤value<50%)) | < 50% | – | – | –
2 | 25 to 50% | 25 to 50% | O=C1CCC(N2Cc3c(CCc4ccc(CN5CCOCC5)cc4)csc3C2=O)C(=O)N1 (stereo not shown) [Compound 4] | 2 to 3 | – | B (“B” represents a % degradation value of equal to or more than 25% and less than 50% (25%≤value<50%)) | – | – | – | –
3 | 50 to 75% | – | CCN(CC)Cc1ccc(OCc2scc3c2CN([C@H]2CCC(=O)NC2=O)C3=O)cc1 [Compound 14, (S)-3-(1-((4-((diethylamino)methyl)phenoxy)methyl)-4-oxo-4H-thieno[3,4-c]pyrrol-5(6H)-yl)piperidine-2,6-dione] | 2 to 3 | 70 to 90% | – | 70 to 90% | 50 to 75% | B (“B” represents a % degradation value of equal to or more than 25% and less than 50% (25%≤value<50%)) | < 50%
4 | ≥ 75% | 50 to 75% | CC1COCC(C)N1Cc1ccc(OCc2scc3c2CN([C@H]2CCC(=O)NC2=O)C3=O)cc1 (stereo partly drawn) [Compound 19, (3S)-3-(1-((4-((3,5-dimethylmorpholino)methyl)phenoxy)methyl)-4-oxo-4H-thieno[3,4-c]pyrrol-5(6H)-yl)piperidine-2,6-dione] | ≤ 1 | 70 to 90% | C (“C” represents a % degradation value of equal to or more than 50% and less than 75% (50%≤value <75%)) | 70 to 90% | 50 to 75% | – | < 50%
5 | ≥ 75% | ≥ 75% | O=C1CC[C@H](N2Cc3c(csc3COc3ccc(CN4CCOCC4)cc3)C2=O)C(=O)N1 [Compound 1, (S)-3-(1-((4-(morpholinomethyl)phenoxy)methyl)-4-oxo-4H-thieno[3,4-c]pyrrol-5(6H)-yl)piperidine-2,6-dione] | 1 to 2 | > 90% | C (“C” represents a % degradation value of equal to or more than 50% and less than 75% (50%≤value <75%)) | – | 50 to 75% | – | 50 to 70%
6 | ≥ 75% | 50 to 75% | CC1CN(Cc2ccc(OCc3scc4c3CN([C@H]3CCC(=O)NC3=O)C4=O)cc2)CC(C)O1 (stereo partly drawn) [Compound 17, (3S)-3-(1-((4-((2,6-dimethylmorpholino)methyl)phenoxy)methyl)-4-oxo-4H-thieno[3,4-c]pyrrol-5(6H)-yl)piperidine-2,6-dione] | 1 to 2 | 70 to 90% | – | > 90% | 50 to 75% | – | < 50%

From US11191769B2, “Fused thiophene compounds” (BioTheryX, Inc., priority 2018, dated 2021)
